Assays:
[1] = test system: human embryonic stem cell-derived embryoid bodies; experiment: Cell death inducing effect on residual stem cells in human embryonic stem cell-derived embryoid bodies and enrichment of cardiomyocytes; type: cell-based; conditions: 0.45 M or 0.6 M
Procedure: After passaging, human embryonic stem cells were subjected to suspension culture in a culture medium [α-MEM (minimum essential medium) (SIGMA), supplemented with 10% FBS (EQUITEC BIO), 100 units/ml penicillin, and 50 μg/ml streptomycin (GIBCO)] to induce formation of embryoid bodies. At 14-18 days after the start of differentiation (the start of suspension culture), autonomously pulsating cells started to differentiate, which was confirmed in a separate step that they were cardiomyocytes.
The embryoid bodies still maintained an autonomously pulsating ability after the passage of 3 months from the start of differentiation. They were partially treated with 0.1% collagenase (Wortington) and 0.1% trypsin (DIFCO) to be dispersed as fine cell masses. The cell masses were divided into two groups; one group was treated with 0.45 M mannitol (approximately equivalent to 720 mOsm/kg) for 2 hours, and the other group (control) was not treated with mannitol but treated with the same amount of a solution having the physiological osmotic pressure, Ads buffer (116.4 mM NaCl, 5.4 mM KCl, 5.6 mM dextrose, 10.9 mM NaH2PO4, 405.7 μM MgSO4, 20 mM Hepes, pH 7.3) for 2 hours. After the treatment, both cell groups were subjected to adherent culture for 3 days in a DMEM solution supplemented with 10% fetal calf serum.
The mannitol-treated cells and the control cells were analyzed in accordance with the experimental procedure of Example 1 using a mouse anti-Oct-3/4 monoclonal antibody (No. 084720 of BD Transduction Laboratories) and a goat anti-Nkx 2.5 antibody (No. N-19 of Santacruz) as primary antibodies, for the expression of the Oct-3/4 protein which was both a marker of embryonic stem cells and an intranuclear transcription factor, and for the expression of the Nkx 2.5 protein which was both a cardiomyocyte marker and an intranuclear transcription factor, respectively. The results for the control group, one of the two divided samples, are shown in FIG. 10 and the results for the test group subjected to 2-hr treatment with mannitol are shown in FIG. 11. The upper panels of FIG. 10 show the results of cardiomyocytes and the lower panels show the results of embryonic stem cells.
The embryoid bodies still maintained an autonomously pulsating ability after the passage of 3 months from the start of differentiation. They were partially treated with 0.1% collagenase (Wortington) and 0.1% trypsin (DIFCO) to be dispersed as fine cell masses. The cell masses were divided into two groups; one group was treated with saccharides (sugar alcohols: sorbitol, xylitol, and glycerol; sugars: sucrose and glucose; betaines: trimethylglycine) for 12 hours in an amount of 0.45 M (approximately equivalent to 700-780 mOsm/kg) or 0.6 M (approximately equivalent to 850-1000 mOsm/kg), and the other group (control) was not treated with those saccharides but treated with the same amount of a solution having the physiological osmotic pressure, Ads buffer (116.4 mM NaCl, 5.4 mM KCl, 5.6 mM dextrose, 10.9 mM NaH2PO4, 405.7 μM MgSO4, 20 mM Hepes, pH 7.3) for 2 hours. After the treatment, both cell groups were cultured for 12 hours in a DMEM solution supplemented with 10% fetal calf serum.
Samples of differentiated cells derived from human embryonic stem cells, as treated with 0.45 M glycerol (approximately equivalent to 710 mOsm/kg) or 0.6 M glycerol (approximately equivalent to 870 mOsm/kg), were examined for their morphology under the culture conditions. […] The cell death inducing effect was noticeable when the cells were exposed to glycerol for 10 hours and longer (FIG. 14).

[2] = Saccharide concentration and osmotic pressure of hypertonic solutions (measured values); type: physicochemical
Procedure: When the hypertonic solution having an osmotic pressure of 370 mOsm/kg or higher is prepared by adding a saccharide to the culture medium, the method of the present invention is characterized in that the hypertonic solution contains the saccharide in 0.1-1 M (mol/L), preferably 0.1-0.6 M (mol/L). The relation between the concentration of saccharide (mol/L) and the osmotic pressure (mOsm/kg) can be approximated by a substantially straight line; a hypertonic solution containing 0.1 M saccharide corresponds to one having an osmotic pressure of approximately 370 mOsm/kg and a hypertonic solution containing 1 M saccharide corresponds to one having an osmotic pressure of approximately 1300-1600 mOsm/kg.
Hypertonic solutions were prepared using various saccharides and the relation between the saccharide concentration and the osmotic pressure is shown in the following table for typical saccharides.

[3] = test system: human embryonic stem cells; experiment: Cell death inducing effect on human embryonic stem cells (TMRM FACS, 5-day adherent culture); type: cell-based; conditions: 0.45 M, 2 hours
Procedure: The human embryonic stem cells were obtained from Stem Cell Research Center, Institute for Frontier Medical Sciences, Kyoto University (ES cell center sponsored by the National Bio-Resource Project) (Suemori, H et al., Biochem. Biophys. Res. Commun., Vol. 345, 2006, pp. 926-932). The cells were cultured basically in accordance with the method described in this document. To be more specific, the human embryonic stem cells were cultured to maintain their undifferentiated state using mouse embryonic fibroblasts (MEF) that had been inactivated for growth by treatment with mitomycin C. The culture medium of F12/DMEM (1:1) (SIGMA; Product No. D6421), supplemented with 20% KO-SERUM (GIBCO), 1.6 mM L-glutamine, 0.1 mM non-essential amino acids (MEM), 0.1 mM β-mercaptoethanol (2-ME; Sigma), 100 IU/ml penicillin, 100 μg/ml streptomycin sulfate, and recombinant human basic fibroblast growth factor (bFGF; Reprotech) was used. Upon passaging, the cells were treated with 0.1% type III collagenase (Wortington) at 37° C. for 10 minutes to separate embryonic stem cell colonies. After passaging, the cells were dispersed with each other using TE (0.25% trypsin (GIBCO) and 1 mM EDTA) and in accordance with a published document (Watanabe, K. et al., Nat. Biotechnol., 2007, 25: 681-686, Epub 2007 May 27), 10 μM of a ROCK inhibitor (Y27632) was added to suppress cell death. At the same time, the mitochondria in the live cells were stained with 50 nM TMRM. Part of the stained cells were treated with an α-MEM culture medium containing 0.45 M mannitol (approximately equivalent to 720 mOsm/kg) for 2, 3 or 4 hours and three samples were prepared from these cells; the rest of the stained cells were treated with a mannitol-free α-MEM culture medium for 2 hours and a sample was prepared from these cells as a control. In the control, cells were aggregated with each other to make masses, so before FACS analysis, the treated groups and the control were given another treatment with trypsin and EDTA to disperse the cells. The cells treated with mannitol for 2, 3 or 4 hours and the control cells were analyzed by FACS for the level of mitochondrial membrane potential on the basis of the fluorescent intensity of TMRM to check the state of survival of the stem cells; the results are shown in FIG. 7. […] In addition, the TMRM-stained cells were photographed, both for the case of 2-h treatment with mannitol and for the control (FIG. 8)). […] Changes in the mitochondrial membrane potential were observed using the experimental technique of Example 5, provided that the human embryonic stem cells were treated not with mannitol, but with 0.45 M of various other saccharides (sugar alcohols: sorbitol and xylitol; sugars: sucrose and glucose; betaines: trimethylglycine) (approximately equivalent to 750-780 mOsm/kg) for 2 hours.

[4] = saccharide concentration 0.45 M in culture medium
[5] = saccharide concentration 0.6 M in culture medium
[6] = saccharide concentration 0.9 M in culture medium

Osmotic pressure [2, 4]	Osmotic pressure ([2]; saccharide concentration 0.45 M in culture medium, listed as Glycerol)	Osmotic pressure [2, 5]	Osmotic pressure ([2]; saccharide concentration 0.6 M in culture medium, listed as Glycerol)	Osmotic pressure [2, 6]	SMILES	Exposure time at which the cell death inducing effect was noticeable [1]	State of differentiated cells other than cardiomyocytes (morphology) [1]	Mitochondrial membrane potential (TMRM fluorescence, FACS) [3]
~710 mOsm/kg	706 mOsm/kg	~870 mOsm/kg	869 mOsm/kg	1232 mOsm/kg	OCC(O)CO [glycerol]	≥ 10 h	almost all of the differentiated cells other than cardiomyocytes had been dead	
748 mOsm/kg		922 mOsm/kg		1289 mOsm/kg	OC[C@@H](O)[C@@H](O)[C@H](O)[C@@H](O)CO [sorbitol]			all of the cells treated with the above-mentioned saccharides for 2 hours had lost membrane potential
779 mOsm/kg		988 mOsm/kg		1496 mOsm/kg	OC[C@H]1O[C@@](CO)(O[C@H]2O[C@H](CO)[C@@H](O)[C@H](O)[C@H]2O)[C@@H](O)[C@@H]1O [sucrose]			all of the cells treated with the above-mentioned saccharides for 2 hours had lost membrane potential
763 mOsm/kg		965 mOsm/kg		1421 mOsm/kg	C[N+](C)(C)CC(=O)[O-] [trimethylglycine]			all of the cells treated with the above-mentioned saccharides for 2 hours had lost membrane potential
779 mOsm/kg		940 mOsm/kg		1230 mOsm/kg	OC[C@@H](O)[C@H](O)[C@@H](O)CO [xylitol]			all of the cells treated with the above-mentioned saccharides for 2 hours had lost membrane potential

Reference: patent US8735152B2, “Methods for inducing cell death in pluripotent stem cells and differentiated cells other than cardiac myocytes” (Daiichi Sankyo Company, Limited, priority 2009, dated 2014)
